Experimental data as given in paper PMC10760875, “Synthesis of alnustone-like diarylpentanoids via a 4 + 1 strategy and assessment of their potential anticancer activity” (Turkish Journal of Chemistry, 2023).

Legend:
[1] = test system: U87-MG cells (human glioblastoma); experiment: MTT cytotoxicity assay, U87-MG; format: cell-based; settings: for IC50: Homo sapiens, U-87 MG, MTT, 48 h, read-out: IC50 against U87-MG; for SI, U87-MG cells: SI = IC50 normal cells (HPAEpiC)/IC50 U87-MG
Description: (§1) GBM (U87-MG), breast cancer (MCF-7), prostate carcinoma (PC-3), and lung epithelium (HPAEpiC) cell lines were used to assess the cytotoxic action potential of compounds 5a–5l. The cells were grown in a single layer in flasks in appropriate medium containing 10% fetal bovine serum (FBS), 1% penicillin/streptomycin, and 1% L-glutamine at 37 °C and 5% CO2 to maintain the pH balance. Cells that had reached 70%–80% confluence were used in the experiments.
(§2) The 3-(4,5-dimethylthiazol-2-yl)-2,5-diphenyltetrazolium bromide (MTT) method is a widely used colorimetric method for the quantitative determination of cell viability. It is based on the reduction of the tetrazolium ring of the yellow dye MTT by living cells. As a result of the reduction, the tetrazolium ring breaks down to form a dark blue-violet formazan compound. Cell viability is then determined spectrophotometrically. The viability of untreated cells is assumed to be 100% and the viability of treated cells is determined as a percentage (%) according to those cells.
(§3) To each 96-well plate, 2 × 10^4 cells were seeded and treated with 6 different concentrations (3.125, 6.25, 12.5, 25, 50, and 100 mg/L) of the 12 tested compounds, and then the plates were incubated in a CO2 oven at 37 °C for 48 h. At the end of the incubation, 10 μL of the MTT mixture was added to each well using a pipette, which was then gently mixed for 1 min on a circular mixer. The cells were incubated in a CO2 oven at 37 °C for 3–4 h. The formazan that formed as a result of the incubation was seen as dark crystals at the bottoms of the wells. The culture medium was carefully aspirated from each well without dispersing the cell layer, and then 100 μL of dimethyl sulfoxide (DMSO) was added to each well and gently stirred on an orbital stirrer to dissolve the formazan crystals. Each sample was read at a wavelength of 570 nm in a spectrophotometer and absorbance values were obtained. A wavelength of 630 nm was used as the reference wavelength.
(§4) Percent viability and cytotoxicity values for each dose administered were calculated according to the following formulas:
(§5) • % Viability = (absorbance of the sample/absorbance of the control) × 100 • % Cytotoxicity = [1 – (absorbance of the sample/absorbance of the control)] × 100
(§6) The IC50 dose, as the concentration of inhibitor that caused a 50% decrease in cell viability, was calculated using Excel regression analysis.
(§7) Human GBM (U87-MG), breast cancer (MCF-7), prostate cancer (PC-3), and pulmonary alveolar epithelial cells (HPAEpiC) cell lines from the American Type Culture Collection (ATCC) were used for the cytotoxicity testing of compounds 5a–5l. The cells were grown as a single layer in appropriate medium containing 10% FBS, 1% penicillin/streptomycin, and 1% L-glutamine at 37 °C and 5% CO2 atmosphere.
(§8) The cytotoxicity analyses of all of the compounds were investigated by determining cell viability based on the colorimetric MTT assay, which was conducted according to the manufacturer’s guide. First, […] were seeded in a 96-well plate and then incubated at 37 °C in a 5% CO2 environment for 24 h. The medium was aspirated the following day, and […] of each concentration of the 12 tested compounds (3.125, 6.25, 12.5, 25, 50, and 100 mg/L) were separately added to each well. The plates were then incubated for 48 h at 37 °C with 5% CO2. Next, 10 μL of MTT solution was added to each well and the plate was incubated for 4 h. The culture medium was aspirated from the wells without dispersing the cell layer and then 100 μL of DMSO was added to each well and stirred on an orbital stirrer to dissolve the formazan crystals. Each sample was read at a wavelength of 570 nm in a spectrophotometer and absorbance values were obtained. A wavelength of 630 nm was used as the reference. Cell viability was expressed as a percentage compared to the untreated cells. All experiments were performed in triplicate.

[2] = test system: MCF-7 cells (breast cancer); experiment: MTT cytotoxicity assay, MCF-7; format: cell-based, human; settings: SI = IC50 normal cells (HPAEpiC)/IC50 MCF-7
Description: as §1, §2, §3, §4, §5, §6, §7, §8

[3] = test system: PC-3 cells (prostate cancer); experiment: MTT cytotoxicity assay, PC-3; format: cell-based, human; settings: for SI, PC-3 cells: SI = IC50 normal cells (HPAEpiC)/IC50 PC-3
Description: as §1, §2, §3, §4, §5, §6, §7, §8

[4] = test system: HPAEpiC cells (pulmonary alveolar epithelial cells); experiment: MTT cytotoxicity assay, healthy HPAEpiC; format: cell-based; settings: Homo sapiens, Epithelial cell, 48 h, read-out: IC50 against HPAEpiC (healthy cells)
Description: as §1, §2, §3, §4, §5, §6, §7, §8

MCF-7 cells = experiment: Hoechst 33258 nuclear staining, MCF-7; format: cell-based, human; settings: IC50 concentration, 48 h
Description: (§9) Cell morphological characteristics were examined via the fluorescent Hoechst 33258 staining approach. […] The nuclei in the untreated group were stained a less brilliant blue and the color was uniform. After 48 h of treatment at the IC50 concentrations of compounds 5a and 5i, the blue emission light in the apoptotic cells was considerably brighter than in the control cells. Many compound-treated cells also had condensed chromatin, and some had the shape of apoptotic bodies, which is one of the basic features of apoptotic cells (Figures 5 and 6). In line with these findings, it was previously reported that the diarylpentanoid BP-M345 exerted potential as an anticancer drug, showing its antiproliferative activity by preventing mitosis through microtubule disruption and inducing cancer cell death. Likewise, diarylpentanoid derivatives have led to intrinsic apoptosis in cancer cells by upregulating proapoptotic proteins such as Bad and Bax and downregulating prosurvival proteins such as Bcl-2 and Bcl-xL [33]. […]
(§10) Hoechst 33258 staining was used to assess significant morphological changes in the nuclear chromatin of the cells. […] Thereafter, the cells were observed using a Leica DMIRB fluorescence microscope (Leica Microsystems, Wetzlar, Germany). […]

U87-MG cells = experiment: Hoechst 33258 nuclear staining, U87-MG; format: cell-based, human; settings: IC50 concentration, 48 h
Description: as §9, §10

SMILES	IC50 [1] [µM]	SI, U87-MG cells [1]	SI, MCF-7 cells [2]	SI, PC-3 cells [3]	IC50 [4] [µM]	Nuclear morphology by Hoechst 33258 staining, MCF-7 (MCF-7 cells)	Nuclear morphology by Hoechst 33258 staining, U87-MG (U87-MG cells)	IC50 ([3]; Homo sapiens, PC-3, 48 h, MTT, 48 h, read-out: IC50 against PC-3) [µM]
COc1ccc(/C=C/C(=O)CCc2ccc(O)cc2)cc1 [Compound 5i, (E)-5-(4-hydroxyphenyl)-1-(4-methoxyphenyl)pent-1-en-3-one]	233	0.06	2.52	1.53	14.9	apoptotic cells with fragmented nuclei	apoptotic cells with fragmented nuclei	
O=C(/C=C/c1ccccc1)CCc1ccccc1 [Compound 5a, (E)-1,5-diphenylpent-1-en-3-one]	107	0.79	7.45	1.69	84.8	apoptotic cells with fragmented nuclei	apoptotic cells with fragmented nuclei	50.1
